From EP2732821A1, “Amphoteric polyamidoamines in the treatment of malaria” (Universita' Degli Studi Di Milano, priority 2012, dated 2014)
Where two headings read alike, the source gives them in different places.

Legend:
[1] = system: P. falciparum 3D7 cultures; assay: microbe, parasite or virus in culture; settings: Plasmodium falciparum, 3D7, 48 h
Description: Parasitemia of P. falciparum 3D7 cultures was adjusted to 1.5% with more than 90% of parasites at ring stage after sorbitol synchronization. 98 µL of this Plasmodium culture was plated in 96-well plates and incubated in the presence of phosphate-buffered saline (PBS) solutions of the free drugs or of polymer/drug conjugates (ISA 23-PQ obtained in Example3; AGMA1-PQ obtained in Example 4,; ISA 23-CQ obtained in Example 3; AGMA1-CQ obtained in Example 4) for 48 h at 37°C under a gas mixture of 92% N2, 5% CO2, and 3% O2. Parasitemia was determined by microscopic counting of blood smears, or by FACS. Table 2. Effect of free primaquine, ISA23-PQ and AGMA1-PQ on the growth of P. falciparum. The polymers were added to P. falciparum cultures at the ring stage, and incubated for 48 h before determining parasitemia.

[2] = system: P. yoelii XL-infected mice; settings: for % parasitemia: day 4
Description: Briefly, mice were inoculated 2 × 10^6 red blood cells from P. yoelii XL-infected mice by intraperitoneal (ip) injection. […] Tested compounds were prepared at appropriate doses in PBS. The control groups received PBS (n=3). The parasitemia was monitored daily by microscopic examination of Wright's-stained thin-blood smears. Activity was calculated by microscopic counting of blood smears from day 4.

[3] = system: P. yoelii-infected mice; settings: oral, 100 mg kg^-1; cited from earlier work
[4] = system: P. berghei-infected mice; settings: single intravenous dose of 1 mg kg^-1, free drug; cited from earlier work

## CCN(CC)CCCC(C)Nc1ccnc2cc(Cl)ccc12 (centres unmarked) [CQ soluble, chloroquine]
[1]
  inhibition at 0.0026 µg/mL: 8.9%
  inhibition at 0.00515 µg/mL: 22.6%
  inhibition at 0.0103 µg/mL: 72.9%
  inhibition at 0.0206 µg/mL: 82.1%
  inhibition at 0.0414 µg/mL: 85.9%
  inhibition at 0.0824 µg/mL: 86.4%
[2]; chloroquine 1 mg/kg per day ip for 4 days
  % parasitemia: 37.7%
[2]; chloroquine 2.5 mg/kg
  % parasitemia: 20.1%
[2]; intraperitoneal 4 × 1 mg kg^-1 doses of CQ, free CQ at the same or even a larger amount
  elimination of parasitemia and cure of the animals: unable to eliminate parasitemia or cure the animals

## COc1cc(NC(C)CCCN)c2ncccc2c1 (centres unmarked) [PQ soluble, primaquine]
[1]
  inhibition at 0.44 µg/mL: 6.9%
  inhibition at 0.88 µg/mL: 40.9%
  inhibition at 1.76 µg/mL: 53.9%
  inhibition at 3.52 µg/mL: 80.3%
  inhibition at 7.04 µg/mL: 86.6%
  inhibition at 14.1 µg/mL: 88.2%

## COc1cc(/C=C/C(=O)CC(=O)/C=C/c2ccc(O)c(OC)c2)ccc1O [curcumin]
[3]
  animals cured: one third

## CCCCN(CCCC)CCC(O)c1cc2c(Cl)cc(Cl)cc2c2cc(C(F)(F)F)ccc12 (centres unmarked) [halofantrine]
[4]
  arrest of infection and survival: unable to arrest the infection or to prolong the survival of the animals
